The record followed here is patent US5635510A, “Substituted pyrrolidin-3-yl-alkyl-piperidines” (Merrell Pharmaceuticals Inc., priority 1994, dated 1997).

Structures are written as SMILES.

One experiment concerns the target T1, NK1 receptor (Homo sapiens, UniProt P25103).
T1 construct: antagonizes both NK1 (on UC11 cells); endogenous in cells; host or cells: UC11 cells
Kind of experiment: Antagonism of NK1 receptor mediated (SP-induced) phosphatidylinositol turnover in UC11 cells. The class given is cell-based. How it is done: Tachykinin-mediated inositol phosphate accumulation was measured in UC11 or SKLKB82#3 cells in the presence and absence of NK1 or NK2 receptor antagonists, respectively. Tissues were incubated in Krebs-Henseleit buffer at 37° C. with 95% O2 -5% CO2 gassing. Tissues were then incubated with fresh buffer containing 100 μCi of myo-[2-3H(N)] inositol at 37° C. for 60 min with gentle gassing. After washing twice in 5 ml room temperature buffer containing 10 mM LiCl, tissues were incubated for 30 min at room temperature with a buffer change at 15 min. Buffer was removed and Krebs-Henseleit buffer (containing 40 μg/ml bacitracin, 4 μg/ml each of leupeptin and chymostatin, 0.1% bovine serum albumin and 10 mM each of thiorphan and LiCl) added. After 15 min, SP was added to UC11 cells or NKA to SKLKB82#3 cells at various concentrations to start the reaction. After incubation for 60 min at room temperature the reaction was terminated by addition of 930 μl chloroform: methanol (1:2 by volume) to each tube, followed by 310 μl chloroform and 310 μl doubly distilled water. Samples were vortexed, centrifuged, and 0.9 ml of the aqueous (top) phase removed and added to 2 ml ddH2 O. The mixture was vortexed and loaded onto a 50% Bio-Rad AG 1-X8 (formate form, 100-200 mesh) exchange column (Bio-Rad Laboratories, Hercules, Calif.). The columns were washed, in order, with: 1) 10 ml doubly distilled water, 2) 5 ml of 5 mM disodium tetraborate/60 mM sodium formate, and 3) 5 ml of 1M ammonium formate/0.1M formic acid. The third elution was collected and 1 ml counted in 7 ml scintillation fluid. A 50 μl aliquot of the organic (bottom) phase was removed, dried in a scintillation vial and counted in 7 ml scintillation fluid.
The ratio of DPM in the aqueous phase aliquot (total inositol phosphates) to the DPM in the 50 μl organic phase aliquot (total [^3 H]inositol incorporated) was calculated for each sample. Data are expressed as a percent of agonist-induced accumulation of [^3 H]-inositol phosphates over basal levels. The ratios in the presence of test compound and/or standards were compared to the ratios for control samples (i.e. no stimulating agonist). Dose-response graphs were constructed and the abilities of the test compounds to inhibit tachykinin-induced phosphatidyinositol turnover determined with the aid of a computer program. […] Data is expressed as percent stimulation of total inositol phosphate accumulation over basal levels and normalized to the maximum response produced by SP. […] Schild analysis is performed using dose response curves (such as those presented in FIGS. 1a and 1b) to obtain a value indicative of the strength of a competitive antagonist and is expressed as the pA2, which is the negative logarithm of the molar concentration of antagonist which reduces the effect of a dose of agonist to one-half of that expected at the dose of agonist.

The next experiment has as its system NK1 and NK2 receptors. Kind of experiment: Modulation of respiratory effects produced by capsaicin aerosol in conscious guinea pigs. Particulars: for dyspnea onset / maximum pressure increase: capsaicin aerosol; for dyspnea onset / maximum pressure increase / SRE number (coughs/gasps): mean and SEM; for SRE number (coughs/gasps): during 19 min capsaicin exposure; for dyspnea incidence: i.v. 20 min prior to capsaicin aerosol (0.001%). It counts as in vivo, guinea pig. How it is done:
In vivo experiments were performed using male Duncan Hartley guinea pigs (250-350g). Changes in conscious breathing patterns were monitored in four animals simultaneously using modified whole body plethysmography consisting of four small plexiglass boxes each connected to a reference box via Validyne DP 45-16 differential pressure transducers. The 4 boxes were equipped with an air supply line (also used for aerosol delivery) and an exhaust air line. Supply and exhaust lines were of the same length and narrow bore and arose from a common supply chamber and vented to a common exhaust chamber. This system was used to ensure that fluctuations in supply air and atmospheric pressure would remain in phase and be eliminated from the net signal by the differential pressure transducers. The analog pressure signals were digitalized via a Data Translation DT2821 A to D board. Data were collected at a rate of 100 samples/second/animal. Each cycle of pressure change was analyzed using the following parameters: rising and falling slope determined between minimum and maximum pressures, the ratio of rising over falling slope, and the magnitude of the change between initial trough pressure and peak cycle pressure. Using these values (and observing the animals) the pressure cycles were characterized into normal breaths, forced exhalations (apparent by abdominal heaving), significant respiratory events (SREs; usually coughs, less often sneezes or gasps which were characterized by transient, extremely large pressure increases which were distinguishable from noise) and movement/noise with a PCAT 286 running a System V UNIX operating system. Dyspnea was defined as a significant, sustained increase in plethysmograph pressure which was associated with an observable shift to labored breathing in the animal.
During the course of a typical experiment in which airway responsiveness to various bronchoconstricting agents was examined, aerosols were delivered for 19 min (0.33 ml/min) using a DeVilbiss Ultraneb 99 ultrasonic nebulizer and animals monitored during this time. Prior to nebulization, 1 min of resting breathing was collected to establish a baseline pressure. […] The vehicle for nebulization of all bronchoconstrictive agents was phosphate buffered saline (pH 7.4) which elicited no respiratory effects itself. Putative tachykinin antagonists were administered either (i.v.) 20 min prior to onset of aerosol exposure or orally 1 hour prior to onset (to guinea pigs after an overnight fast).
Capsaicin aerosol is known to promote release of the tachykinins SP and NKA from sensory nerves in the airways of guinea pigs which may then act upon NK1 and NK2 receptors, respectively to elicit respiratory effects.

T1 sequence (P25103 whole entry): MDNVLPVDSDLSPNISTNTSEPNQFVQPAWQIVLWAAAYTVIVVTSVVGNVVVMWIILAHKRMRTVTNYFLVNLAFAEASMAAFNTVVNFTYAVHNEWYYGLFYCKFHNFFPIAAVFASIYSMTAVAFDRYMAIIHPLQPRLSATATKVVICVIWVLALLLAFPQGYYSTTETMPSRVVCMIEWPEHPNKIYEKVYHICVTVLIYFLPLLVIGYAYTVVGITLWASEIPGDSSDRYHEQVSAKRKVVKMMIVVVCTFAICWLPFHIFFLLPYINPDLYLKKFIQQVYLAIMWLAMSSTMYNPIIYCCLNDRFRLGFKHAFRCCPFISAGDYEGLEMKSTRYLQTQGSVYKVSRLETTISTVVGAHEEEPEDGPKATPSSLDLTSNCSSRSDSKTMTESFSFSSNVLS

In the case of `COc1cc(C(=O)N2CCC(CCN3CCC(C(N)=O)(c4ccccc4)CC3)(c3ccc(Cl)c(Cl)c3)C2)cc(OC)c1OC` (stereo not drawn) [Example 3, 1-[2-[3-(3,4-dichloro-phenyl)-1-(3,4,5-trimethoxy-benzoyl)-pyrrolidin-3-yl]-ethyl]-4-phenyl-piperidine-4-carboxylic acid amide], the “antagonism of SP-induced PI turnover (in words)” value on NK1 receptor (UC11 cells, FIG. 1a) is “antagonizes both NK1 (on UC11 cells) and NK2 (on SKLKB82#3) receptors in a dose-dependent manner”. Moreover, the “agonist activity (stimulation of PI turnover by compound alone)” value on NK1 receptor (UC11 or SKLKB82#3 cells) was “no agonist activity”.
For the compound `COc1cc(C(=O)N2CCC(CCN3CCC(C(N)=O)(c4ccccc4)CC3)(c3ccc(Cl)c(Cl)c3)C2)cc(OC)c1OC.Cl` (single isomer, unassigned; (+)) [Example 20A, (+)-1-[2-[3-(3,4-dichloro-phenyl)-1-(3,4,5-trimethoxy-benzoyl)-pyrrolidin-3-yl]-ethyl]-4-phenyl-piperidine-4-carboxylic acid amide hydrochloride], the dyspnea onset turned out to be 331 ± 22 s with NK1 and NK2 receptors (1 mg/kg i.v.); 426 ± 57 s in the experiment on NK1 and NK2 receptors (2.5 mg/kg i.v.); 597 ± 186 s in the experiment on NK1 and NK2 receptors (5 mg/kg i.v.); 592 ± 71 s with NK1 and NK2 receptors (10 mg/kg i.v.). Further, the maximum pressure increase with NK1 and NK2 receptors (1 mg/kg i.v.) worked out at 1.0 ± 0.1 mmH2 O; with NK1 and NK2 receptors (2.5 mg/kg i.v.) it was 0.6 ± 0.1 mmH2 O; in the experiment with NK1 and NK2 receptors (5 mg/kg i.v.) it was 0.8 ± 0.06 mmH2 O; with NK1 and NK2 receptors (10 mg/kg i.v.), 0.8 ± 0.1 mmH2 O. In addition, the “SRE number (coughs/gasps)” value with NK1 and NK2 receptors (1 mg/kg i.v.) is on record as 9.9 ± 2.7; with NK1 and NK2 receptors (2.5 mg/kg i.v.), 8.3 ± 1.6; in the experiment with NK1 and NK2 receptors (5 mg/kg i.v.) it was 4.4 ± 1.9; with NK1 and NK2 receptors (10 mg/kg i.v.), 3.3 ± 1.1. The dyspnea incidence with NK1 and NK2 receptors (1 mg/kg) is on record as 77.8%; with NK1 and NK2 receptors (2.5 mg/kg), 100%; in the experiment on NK1 and NK2 receptors (5 mg/kg), 44.4%; in the experiment on NK1 and NK2 receptors (10 mg/kg) it was 55.6%. Besides, the “effect on capsaicin-induced respiratory effects (in words)” value with NK1 and NK2 receptors (intravenous) is given as “attenuate capsaicin-induced respiratory effects”.
`COc1cc(C(=O)N2CCC(CCN3CCC(C(N)=O)(c4ccccc4)CC3)(c3ccc(Cl)c(Cl)c3)C2)cc(OC)c1OC` (single isomer, unassigned; (+)) [Example 20, (+)-1-[2-[3-(3,4-dichloro-phenyl)-1-(3,4,5-trimethoxy-benzoyl)-pyrrolidin-3-yl]-ethyl]-4-phenylpiperidine-4-carboxylic acid amide]: the “relative antagonism of NK1 and NK2 receptors (in words)” value at NK1 receptor (PI turnover, UC11 (NK1) versus SKLKB82#3 (NK2) cells) was “antagonized both NK1 and NK2 receptors by nearly equivalent amounts”. Moreover, the Kb at NK1 receptor (UC11 cells, SP, Schild analysis, mean (95% confidence limits), 2-3 experiments, read-out: NK-1 receptor pA2 (converted)) was 6.46 nM.
